Tests used:
[1] = test system: absorption of sodium from the intestinal lumen; assay: Inhibition of intestinal sodium absorption: urinary sodium (uNa) 16 h after single oral dose in rats; assay type: in vivo, rat; conditions: oral gavage, 16 h post-dose
Procedure: (§1) Inhibition of intestinal sodium and phosphate absorption. Urinary sodium concentration and fecal form were measured to assess the ability of selected example compounds to inhibit the absorption of sodium from the intestinal lumen. Eight-week old Sprague-Dawley rats were purchased from Charles River Laboratories (Hollister, CA), were housed 2 per cage, and acclimated for at least 3 days before study initiation. Animals were fed Harlan Teklad Global 2018 rodent chow (Indianapolis, IN) and water ad libitum throughout the study and maintained in a standard light/dark cycle of 6 AM to 6 PM. On the day of the study, between 4 PM and 5 PM, a group of rats (n=6) were dosed via oral gavage with test compound, or a pharmaceutically acceptable salt thereof, or vehicle (water) at a volume of 10 mL/kg.
(§2) After dose administration animals were placed in individual metabolic cages where they were also fed the same chow in meal form and watered ad libitum. At 16 h post-dose, the urine samples were collected and fecal form was assessed by two independent observations. Fecal forms were scored according to a common scale associated with increasing fecal water to the wettest observation in the cage's collection funnel (1, normal pellet; 2, pellet adhering to sides of collection funnel due to moisture; 3, loss of normal pellet shape; 4, complete loss of shape with a blotting pattern; 5, liquid fecal streams evident). A rat's fecal form score (FFS) was determined by averaging both observational scores for all rats within a group (n=6). The vehicle group average was 1.
For urine samples, the volumes were determined gravimetrically and centrifuged at 3,600×g. The supernatants were diluted 100-fold in deionized Milli-Q water then filtered through a 0.2 μm GHP Pall AcroPrep filter plate (Pall Life Sciences, Ann Arbor, MI) prior to analysis by ion chromatography. Ten microliters of each filtered extract was injected onto a Dionex ICS-3000 ion chromatograph system (Dionex, Sunnyvale, CA). Cations were separated by an isocratic method using 25 mM methanesulfonic acid as the eluent on an IonPac CS12A 2 mm i.d.×250 mm, 8 μm particle size cation exchange column (Dionex). Sodium was quantified using standards prepared from a cation standard mix containing Li^+, Na^+, NH4^+, K^+, Mg^2+, and Ca^2+ (Dionex). The mean mass of sodium urinated for every group in the 16 h period was determined with the vehicle group usually urinating approximately 21 mg sodium. The urine Na (uNa) for rats in the test groups were expressed as a percentage of the vehicle mean and the means were compared to that of the vehicle group by utilizing a one-way analysis of variance coupled with a Dunnett's post hoc test.
Further experiments were performed to test the compounds under the persistent and prompt conditions described above, and to test their effects on urinary excretion of sodium in rats. The latter was performed by orally dosing the compounds in rats (single dose) and measuring urinary Na excretion (as a % of vehicle). The results are indicated as percentage of urinary sodium (UNa %); low values indicate relatively active compounds.

[2] = test system: absorption of sodium from the intestinal lumen; assay: Fecal form score (FFS) 16 h after oral dose in rats; assay type: in vivo, rat; conditions: oral gavage, 16 h post-dose, scale 1-5
Procedure: as §1, §2

[3] = test system: phosphorus and calcium levels in the urine of rats; assay: Urinary excretion of phosphate and calcium in rats (16 h overnight urine); assay type: in vivo, rat; conditions: rats, oral gavage, 16 h post-dose
[4] = biological target: T1, Rat NHE3 (Rattus norvegicus, UniProt P26433); assay: Cell-based NHE3 activity under prompt conditions (OK cells, BCECF pH recovery), rat NHE3; conditions: prompt conditions
T1 construct: expressed in transfected cells; host or cells: Opossum kidney (OK) cells (ATCC), electroporation
T1 sequence (P26433 29-831): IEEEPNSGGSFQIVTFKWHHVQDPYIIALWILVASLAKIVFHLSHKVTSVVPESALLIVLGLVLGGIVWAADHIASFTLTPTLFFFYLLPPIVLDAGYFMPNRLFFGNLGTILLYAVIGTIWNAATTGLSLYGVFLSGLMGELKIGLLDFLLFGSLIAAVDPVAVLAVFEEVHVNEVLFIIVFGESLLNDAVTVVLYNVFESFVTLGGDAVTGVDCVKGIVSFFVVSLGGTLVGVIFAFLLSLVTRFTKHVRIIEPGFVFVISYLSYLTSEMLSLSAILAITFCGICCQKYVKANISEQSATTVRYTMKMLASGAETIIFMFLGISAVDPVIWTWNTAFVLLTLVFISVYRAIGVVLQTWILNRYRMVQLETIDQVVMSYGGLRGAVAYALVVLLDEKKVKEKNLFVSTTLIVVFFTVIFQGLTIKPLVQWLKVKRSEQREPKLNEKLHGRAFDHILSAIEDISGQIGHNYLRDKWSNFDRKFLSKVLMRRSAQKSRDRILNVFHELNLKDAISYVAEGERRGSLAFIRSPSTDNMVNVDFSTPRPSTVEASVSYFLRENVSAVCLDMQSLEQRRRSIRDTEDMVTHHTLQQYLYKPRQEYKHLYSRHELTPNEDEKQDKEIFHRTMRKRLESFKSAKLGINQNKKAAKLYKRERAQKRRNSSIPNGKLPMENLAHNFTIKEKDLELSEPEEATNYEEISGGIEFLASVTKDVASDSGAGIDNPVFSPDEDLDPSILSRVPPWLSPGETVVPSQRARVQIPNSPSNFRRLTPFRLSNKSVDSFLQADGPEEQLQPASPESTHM
Procedure: Cell-based activity under Prompt Conditions. Rat or human NHE3-mediated Na^+-dependent H antiport was measured using a modification of the pH sensitive dye method originally reported by Paradiso (PNAS USA. 81:7436-7440, 1984). Opossum kidney (OK) cells were obtained from the ATCC and propagated per their instructions. The rat NHE3 gene (GenBank M85300) or the human NHE3 gene (GenBank NM_004174.1) was introduced into OK cells via electroporation, and cells were seeded into 96 well plates and grown overnight. Medium was aspirated from the wells, cells were washed twice with NaCl-HEPES buffer (100 mM NaCl, 50 mM HEPES, 10 mM glucose, 5 mM KCl, 2 mM CaCl2, 1 mM MgCl2, pH 7.4), then incubated for 30 min at room temperature with NH4Cl-HEPES buffer (20 mM NH4Cl, 80 mM NaCl, 50 mM HEPES, 5 mM KCl, 2 mM CaCl2, 1 mM MgCl2, pH 7.4) containing 5 μM bis(acetoxymethyl) 3,3′-(3′,6′-bis(acetoxymethoxy)-5-((acetoxymethoxy)carbonyl)-3-oxo-3H-spiro[isobenzofuran-1,9′-xanthene]-2′,7′-diyl)dipropanoate (BCECF-AM).
Cells were washed twice with Ammonium free, Na^+-free HEPES (100 mM choline, 50 mM HEPES, 10 mM glucose, 5 mM KCl, 2 mM CaCl2, 1 mM MgCl2, pH 7.4) and incubated in the same buffer for 10 minutes at room temperature to lower intracellular pH. […] Initial rates were plotted as the average 2 or more replicates, and pIC50 values were estimated using GraphPad Prism.
Cell-based activity of NHE3 Activity under ‘Prompt’ Conditions. This assay was performed as described in Example 1 (supra).

Structure (SMILES)	Urine Na % of control ([1]; dose 10 mg/kg) [%]	Fecal Form Score average ([2]; dose 10 mg/kg)	Urine P % of control ([3]; dose 10 mg/kg) [%]	Urine Na % of control ([1]; dose 3 mg/kg) [%]	Fecal Form Score average ([2]; dose 3 mg/kg)	Urine P % of control ([3]; dose 3 mg/kg) [%]	Prompt Rat NHE3 pIC50 [4]	Urine Na % of control ([1]; dose 1 mg/kg) [%]	Fecal Form Score average ([2]; dose 1 mg/kg)	Urine P % of control ([3]; dose 1 mg/kg) [%]
CN(CC(=O)NCCOCCOCCNS(=O)(=O)c1ccc(O[C@H]2c3ccccc3C[C@@H]2N2CCCCC2)cc1)CC(=O)NCCOCCOCCNS(=O)(=O)c1ccc(O[C@H]2c3ccccc3C[C@@H]2N2CCCCC2)cc1 (racemic) [compound 50]	82	1	50							
CN1Cc2c(Cl)cc(Cl)cc2[C@H](c2cccc(S(=O)(=O)NCCOCCOCCNC(=O)CCC(CCC(=O)NCCOCCOCCNS(=O)(=O)c3cccc([C@@H]4CN(C)Cc5c(Cl)cc(Cl)cc54)c3)(CCC(=O)NCCOCCOCCNS(=O)(=O)c3cccc([C@@H]4CN(C)Cc5c(Cl)cc(Cl)cc54)c3)NC(=O)[C@H]3CCCC[C@@H]3C(=O)O)c2)C1 (racemic) [compound 141]				63	2	24				
CN1Cc2c(Cl)cc(Cl)cc2C(c2cccc(S(=O)(=O)NCCOCCOCCNC(=O)CN(CCOCCOCCOCCN)CC(=O)NCCOCCOCCNS(=O)(=O)c3cccc([C@@H]4CN(C)Cc5c(Cl)cc(Cl)cc54)c3)c2)C1 (stereo in doubt) [compound 120]				71	1	71	7.80			
CN1Cc2c(Cl)cc(Cl)cc2C(c2cccc(S(N)(=O)=O)c2)C1 (centres unmarked) [compound 1]	87	1	52				6.60			
CN1Cc2c(Cl)cc(Cl)cc2[C@@H](c2cccc(S(=O)(=O)NCCOCCOCCNC(=O)NCCCCNC(=O)NCCOCCOCCNS(=O)(=O)c3cccc([C@@H]4CN(C)Cc5c(Cl)cc(Cl)cc54)c3)c2)C1 [compound 39]	68	1	130				7.30	71	1	166
CCCCCCCCCCC(=O)NCCOCCOCCOCCNS(=O)(=O)c1cccc([C@@H]2CN(C)Cc3c(Cl)cc(Cl)cc32)c1 [compound 92]	62	1	70				<5.00			
CN1Cc2c(Cl)cc(Cl)cc2[C@H](c2cccc(S(=O)(=O)NCCOCCOCCOCCNC(=O)c3ccc(-c4ccc(Cl)cc4)cc3)c2)C1 [compound 93]	78	1	75				<5.00			
CCCCCCCCOCCOCCOCCOCCOCCOC(=O)NCCOCCOCCOCCNS(=O)(=O)c1cccc([C@@H]2CN(C)Cc3c(Cl)cc(Cl)cc32)c1 [compound 102]	86	1	92				6.60			
CCC(=O)NCCOCCOCCOCCNS(=O)(=O)c1cccc([C@@H]2CN(C)Cc3c(Cl)cc(Cl)cc32)c1 [compound 103]	40	1	71				6.70			
C=CC(=O)NCCOCCOCCOCCNS(=O)(=O)c1cccc([C@@H]2CN(C)Cc3c(Cl)cc(Cl)cc32)c1 [compound 104]	56	2	62				6.70			
CN1Cc2c(Cl)cc(Cl)cc2[C@H](c2cccc(S(=O)(=O)NCCOCCOCCNC(=O)CN(CCOCCOCCOCCNC(=O)c3ccc(-c4ccc(Cl)cc4)cc3)CC(=O)NCCOCCOCCNS(=O)(=O)c3cccc([C@@H]4CN(C)Cc5c(Cl)cc(Cl)cc54)c3)c2)C1 [compound 105]				119	1	154	5.90			
CN1Cc2c(Cl)cc(Cl)cc2[C@H](c2cccc(S(=O)(=O)NCCOCCOCCNC(=O)NCCN(CCNC(=O)NCCOCCOCCNS(=O)(=O)c3cccc([C@@H]4CN(C)Cc5c(Cl)cc(Cl)cc54)c3)C(=O)NCCOCCOCCN)c2)C1 [compound 108]				13	4	51	8.40			
CN1Cc2c(Cl)cc(Cl)cc2[C@H](c2cccc(S(=O)(=O)NCCOCCOCCNC(=O)NCCN(CCNC(=O)NCCOCCOCCNS(=O)(=O)c3cccc([C@@H]4CN(C)Cc5c(Cl)cc(Cl)cc54)c3)C(=O)NCCOCCOCCNC(=O)c3ccc(-c4ccc(Cl)cc4)cc3)c2)C1 [compound 110]				63	1	68	5.80			
CCCCCCCCOc1ccc(CNCCOCCOCCOCCNS(=O)(=O)c2cccc([C@@H]3CN(C)Cc4c(Cl)cc(Cl)cc43)c2)cc1 [compound 111]	60	2	69				<5.00			
CN1Cc2c(Cl)cc(Cl)cc2[C@H](c2cccc(S(=O)(=O)NCCOCCOCCOCCNCc3ccc(-c4ccc(Cl)cc4)cc3)c2)C1 [compound 112]	73	1	67				<5.00			
CC(C)CCC[C@@H](C)[C@H]1CC[C@H]2[C@@H]3CC=C4C[C@@H](OC(=O)NCCOCCOCCNC(=O)N(CCNC(=O)NCCOCCOCCNS(=O)(=O)c5cccc([C@@H]6CN(C)Cc7c(Cl)cc(Cl)cc76)c5)CCNC(=O)NCCOCCOCCNS(=O)(=O)c5cccc([C@@H]6CN(C)Cc7c(Cl)cc(Cl)cc76)c5)CC[C@]4(C)[C@H]3CC[C@]12C [compound 121]				92	1	151	<5.00			

Reference: patent US20240366589A1, “NHE3-BINDING COMPOUNDS AND METHODS FOR INHIBITING PHOSPHATE TRANSPORT” (Ardelyx, Inc., priority 2013, published 2024)
